Reference: PMC10611578, “Aβ1-6A2V(D) peptide, effective on Aβ aggregation, inhibits tau misfolding and protects the brain after traumatic brain injury” (Molecular Psychiatry, 2023)
Square brackets hold non-standard residues; d marks the D form. Peptide text beside a SMILES is read from it.

Columns and labels:
C. elegans = details: C. elegans; ref [18]; cited from earlier work
[1] = system: tau (P301L mouse brain homogenate); test: Western blot of total tau level in P301L brain lysate; format: biochemical, human tau with P301L mutation, JNPL3 mice; details: 50 µM, 2 h at 25 °C, 30 µg protein/100 µL, PBS pH 7.4, DAKO/actin band; mean ± SD, N = 3, p < 0.05
Text: Male JNPL3 mice expressing 0N4R human tau with the P301L mutation (P301L) were obtained from Taconic Biosciences (New York, USA) (Tau Model 2508). Controls were non-transgenic (Non-tg) male mice with the same mixed C57BL/6, DBA/2, SW genetic background as P301L mice. Triple transgenic mice harboring human PS1(M146 V), APP(SW), and MAPT(P301L) transgenes, referred to as 3xTg-AD, were kindly provided by Dr. Oddo [34]. Male and female C57BL/6 J mice, referred to as wild type (WT), were purchased from Envigo (Italy).
Fig. 2 Effect of Aβ1-6A2V-TAT(D) on the toxicity caused in C. elegans by misfolded tau in P301L and TBI brain homogenates. A Brains from P301L mice were homogenized in 10 mM PBS, pH 7.4, and given to worms alone or in the presence of Aβ1-6A2V-TAT(D). B Worms were administered with brain homogenate (30 µg protein/100 worms/100 µL) in the absence or presence of Aβ1-6A2V-TAT(D) (0-200 µM). […] E Representative western blotting showing the total level of tau and tau quantification expressed as the mean volume of the DAKO band immunoreactivity/actin band. […] The reaction was then stopped, and samples were analyzed by western blot. […]
Lysates from brain homogenates of P301L mice (30 µg protein/100 µL) incubated for 2 h at 25°C with 50 µM Aβ1-6A2V-TAT(D), 50 µM Aβ1-6A2V(D), 50 µM TAT or 10 mM PBS, pH 7.4, were analyzed by immunoblotting using 10% SDS-PAGE gel and Western blotting analysis. […]

CC(C)[C@@H](NC(=O)[C@H](N)CC(=O)O)C(=O)N[C@H](CCC(=O)O)C(=O)N[C@H](Cc1ccccc1)C(=O)N[C@H](CCCNC(=N)N)C(=O)N[C@H](Cc1c[nH]cn1)C(=O)NCC(=O)NCC(=O)NCC(=O)NCC(=O)NCC(=O)N[C@H](CCCNC(=N)N)C(=O)N[C@H](CCCCN)C(=O)N[C@H](CCCCN)C(=O)N[C@H](CCCNC(=N)N)C(=O)N[C@H](CCCNC(=N)N)C(=O)N[C@H](CCC(N)=O)C(=O)N[C@H](CCCNC(=N)N)C(=O)N[C@H](CCCNC(=N)N)C(=O)N[C@H](CCCNC(=N)N)C(=O)O [Aβ1-6A2V-TAT(D)] (H-[dD][dV][dE][dF][dR][dH]GGGGG[dR][dK][dK][dR][dR][dQ][dR][dR][dR]-OH; N-terminus assumed)
Passage through the worm's membrane (C. elegans): only in the presence of the TAT sequence, Aβ1-6A2V(D) can pass through the worm’s membrane | Total tau protein level in P301L brain homogenate [1]: significantly reduced the tau protein level
